Measured values as given in patent publication US20200017771A1, “MEANS AND METHODS FOR LIGNIN PYROLYSIS” (UNIVERSITAET DES SAARLANDES, priority 2017, published 2020).
Like-named read-outs stand apart in the source and are kept apart here.

Legend:
[1] = tested on: catechol dioxygenase (CatA); assay: Substrate specificity of catechol dioxygenase in cell extract; type: biochemical, Amycolatopsis species ATCC 39116; conditions: for Specific activity: 20 μM substrate, MA formation at 260 nm
Experimental: The cells were harvested by centrifugation, washed in 60 mM Tris-HCl buffer (pH 8.2), and disrupted in pre-packed lysis tubes (0.1 mm silica spheres, Lysing Matrix B, MP Biomedicals, Heidelberg, Germany), using three intervals of disruption in a ribolyzer (Precellys-24, Peq Lab, Hannover, Germany, 3×30 s, 6 m s^−1) with […] on ice in between. Removal of cell debris and protein quantification was performed as previously described (Becker et al., 2009. Appl. Environ. Microbiol. 75, 7866-9). […] The reaction was monitored on-line via the change in absorbance at 260 nm, reflecting the accumulation of MA (c=16,800 M^−1 cm^−1) (Jimenez et al., 2014. Microbiol. 16, 1767-78). […] Controls without cell extract and without substrate were included.
Subsequently, GC-MS analysis of pure MA and of lyophilized culture supernatant from a culture on o-cresol was conducted. […] It was now interesting to see, how this product was actually derived.

[2] = tested on: Corynebacterium glutamicum LIMA-1; type: cell-based; conditions: glucose as growth substrate; 24 hours
Experimental: C. glutamicum was grown at 1 mL-scale in a micro bioreactor (BioLector I, m2plabs, Baesweiler, Germany), using 48-well flower plates. […] All cultures were conducted as biological triplicate.
A set of growth experiments was conducted to study potential inhibitory effects of the compounds involved on growth of the producing strains.

[3] = tested on: Amycolatopsis sp. ATCC 39116; assay: Utilization of aromatics as sole source of carbon (growth, OD600); type: cell-based; conditions: 2 mM substrate as sole source of carbon in mineral salt medium; OD600 after 40 hours
Experimental: For genetic engineering work, E. coli strains were grown in liquid Luria-Bertani (LB) medium or on solid LB medium, which additionally contained 20 g L^−1 agar (Becton Dickinson, Heidelberg, Germany). For conjugation, A. species ATCC 39116 was grown in liquid GYM medium, containing per liter: 4 g glucose, 4 g yeast extract (Becton Dickinson), and 10 g malt extract (Becton Dickinson). For sporulation and for cloning purposes, solid GYM medium, additionally containing 20 g L^−1 agar (Becton Dickinson), was used. For the pre-culture and the main culture in growth and production studies, a mineral medium (pH 7.2) was used, which contained per liter: 4.5 g Na2HPO4*7H2O, 3.0 g (NH4)2SO4, 1.0 g KH2PO4, 200 mg NaCl, 200 mg MgSO4.7H2O, 50 mg CaCl2.2H2O, 2 mg ZnSO4.7H2O, 1.2 mg MnCl2.4H2O, 0.4 mg CoCl2.6H2O, 0.2 mg NaMoO4.2H2O, 0.2 mg CuSO4.5H2O. […] For direct MA production from pre-treated lignin, appropriate amounts of the obtained hydrolysate (see below) were added. For plasmid maintenance, kanamycin (50 μg mL^−1) or apramycin (50 μg mL^−1) were added, respectively, when needed. In addition, 5-Bromo-4-chloro-1H-indol-3-yl β-D-gluco-pyranosiduronic acid (X-Gluc) was added to selection agar plates (40 μg mL^−1) for blue white screening.
(§1) Amycolatopsis was cultivated in baffled shake flasks, filled to 10% with liquid medium. Single colonies from agar plates, incubated for 24 h at 37° C., were used as inoculum for the first pre-culture. From there, cells were harvested during the exponential growth by centrifugation (5 min, 8800 xg, and 37° C.), and used afterwards as inoculum for the main culture. All shake flask cultivations were conducted in triplicate at 37° C. and 230 rpm on an orbital shaker (Multitron, Infors AG, Bottmingen, Switzerland).
The wildtype was cultivated in minimal medium on a range of aromatics, reflecting a spectrum of potential lignin-derivable raw materials.

[4] = target: catechol-1,2-dioxygenase (CatA) (Corynebacterium glutamicum, UniProt Q8NN11); assay: Catechol-1,2-dioxygenase (CatA) activity and kinetics in crude cell extracts; type: biochemical
Experimental: Crude cell extracts were prepared from exponentially growing cells by mechanical cell disruption. Cell harvest was carried out as previously described (Buschke et al., 2011. Biotechnol. J. 6, 306-17). Aliquots of 1 mL cell suspension were transferred into FastPrep-24 vials (MP Biomedicals, Illkirch-Graffenstaden, France), containing silica beads (Ø 0.1 mm). Cell disruption was carried out in 2×30 sec cycles at 5,000 rpm (Precellys-24, Peqlab, Hannover, Germany), including a 5 minute cooling pause on ice. The extract was also chilled on ice after the disruption. Removal of cell debris and protein quantification was performed as previously described (Becker et al., 2009. Appl. Environ. Microbiol. 75, 7866-9). […] The formation of MA (c=[…]) was monitored via the change in absorbance at 260 nm (Guzik et al., 2013. Int. J. Gen. Mol. Microbiol. 103, 1297-1307). […] The kinetic parameters of the enzyme were obtained by fitting the experimental data to the Michaelis-Menten type kinetic equation (OriginLab, Northhampton, Mass., USA). The protein content in the crude cell extract was quantified, using bovine serum albumin as standard (Pierce BCA Protein Assay Kit, Thermo Fisher Scientific).

[5] = tested on: Corynebacterium glutamicum LIMA-1; assay: Kinetics and stoichiometry of MA production from aromatics, batch shake flask, LIMA-1; type: cell-based
Experimental: (§2) C. glutamicum was grown in baffled shake flasks with 10% filling volume at 30° C. and 230 rpm on an orbital shaker (Multitron, Infors AG, Bottmingen, Switzerland, 5 cm shaking diameter). The cultivation procedure involved one pre-culture in complex medium (37 g L^−1 BHI) followed by another pre-cultivation and then by the main cultivation, both in minimal medium (Kind et al., 2013. Metab. Eng. 15, 184-95.), which contained the following salts and vitamins per liter: NaCl, 0.055 g CaCl2.H2O, 0.2 g MgSO4.7H2O, 15 g (NH4)2SO4, 24.98 g K2HPO4, 7.7 g KH2PO4, 20 mg FeSO4.7 H2O, 0.5 mg biotin, 1 mg thiamine.HCl, 30 mg 3,4-dihydroxybenzoic acid and 10 mL of a 100× trace element solution (Vallino and Stephanopoulos., 1993. Biotechnol. Bioeng. 41, 633-646). […] The different medium ingredients were combined at room temperature freshly before use. The pH was kept constant at 7.0±0.2 by manual addition of 2 M NaOH. All cultures were conducted as biological triplicate.
(§3) A diode array detector was used for detection of MA (260 nm) and the aromatics (210 nm). The quantification of glucose was carried out by isocratic HPLC (Agilent 1260 Infinity Series, Waldbronn, Germany). The separation was conducted on an Aminex HPX-87H column (300×7.8 mm; Bio-Rad, Munich, Germany) at 55° C. As mobile phase, 3.5 mM H2SO4 was used at a flow rate of 0.8 mL min^−1. The refraction index was used for detection. The concentration of cell dry mass (CDM) was calculated from the measured optical density (OD660) using a correlation factor of CDM (g/L)=0.32×OD660 (Rohles et al., 2016. Microb. Cell Fact. 15, 154). The exact monitoring of the cell concentration during the intracellular metabolite sampling and the above correlation allowed to relate the obtained metabolite levels to the CDM (μmol gCDM^−1). The correlation between the cytoplasmic volume and the CDM (1.95 mL gCDM^−1) was used to express intracellular concentrations in mM (Gutmann et al., 1992. Biochim. Biophys. Acta. 1112, 115-23).

[6] = tested on: Corynebacterium glutamicum LIMA-2; assay: Kinetics and stoichiometry of MA production from catechol, batch shake flask, LIMA-2; type: cell-based; conditions: only 10 mM catechol
Experimental: as §2, §3

[7] = tested on: Amycolatopsis sp. ATCC 39116; assay: Growth of wildtype on guaiacol as sole source of carbon; type: cell-based
Experimental: as §1
The cell concentration was determined in duplicate as optical density at 600 nm (OD600). The cell dry mass (CDM) was determined gravimetrically in triplicate. In short, 20 mL culture broth was filtered (Whatman cellulose filter, Grade 3, GE-Healthcare Life Sciences, Little Chalfont, UK), washed three times, and dried to constant weight (HB43-S, Mettler-Toledo, Columbus, Ohio, UA). The correlation factor was CDM [g L^−1]=0.45×OD600.
The capability to use guaiacol was found most relevant, given the huge importance of the aromatic as the dominant building block of softwood lignin, and was therefore studied now in more detail. The wildtype was found robust and tolerated elevated levels of guaiacol. Concentrations up 25 mM were utilized (FIG. 25). […] On a quantitative basis, MA reached a level of 0.3 mM, which represented about 5% of the initially added guaiacol. […]

[8] = LIMA-1, initial 20 mM benzoate, 10 mM catechol, 5 mM phenol, glucose added
[9] = column LIMA-1, 10 mM catechol plus 2 mM benzoate as inducer

catechol-1,2-dioxygenase (CatA), sequence (Q8NN11 entry or part of it): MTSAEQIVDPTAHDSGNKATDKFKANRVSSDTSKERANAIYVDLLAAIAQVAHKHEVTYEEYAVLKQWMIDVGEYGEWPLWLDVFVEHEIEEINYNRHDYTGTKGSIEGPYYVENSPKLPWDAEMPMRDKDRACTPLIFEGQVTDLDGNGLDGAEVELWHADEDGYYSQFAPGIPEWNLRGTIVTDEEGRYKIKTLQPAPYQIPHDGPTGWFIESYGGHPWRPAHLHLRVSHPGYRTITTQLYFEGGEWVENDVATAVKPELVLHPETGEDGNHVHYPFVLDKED

Cc1cccc(O)c1O [3-Methyl catechol]
Specific activity [1]: 470 ± 9 mU mg^−1
activity relative to that found for catechol ([1]; catechol replaced by equimolar substrate): about 70%

Cc1ccc(O)c(O)c1 [4-Methyl catechol]
accepted as substrate by the enzyme [1]: accepted
Specific activity [1]: 380 ± 5 mU mg^−1

O=C(O)c1ccccc1 [Benzoic acid]
level up to which the mutant grew (highest concentrations tested) [2]: ≤ 80 mM
Growth [3]: +++ (OD > 1)
CatA activity of cells cultivated on the aromatic ([4]; LIMA-1 crude extract): 490 mU mg^−1
fold higher CatA activity versus culture only on glucose ([4]; LIMA-1 crude extract): 16 fold
YMA/Aro, MA yield [5]: 1.00 ± 0.02 mol mol^−1
YX/Glc, biomass yield [5]: 0.46 ± 0.01 g/g
qGlc, specific glucose uptake rate [5]: 0.5 ± 0.0 mmol/g/h
qMA, specific MA production rate [5]: 3.3 ± 0.1 mmol/g/h

Oc1ccccc1O [Catechol]
Specific activity [1]: 640 ± 19 mU mg^−1
Specific activity ([1]; listed as catechol): 640 mU mg^−1
Growth [3]: ++ (1 > OD > 0.5)
YMA/Aro, MA yield [6]: 1.00 ± 0.01 mol mol^−1
YX/Glc, biomass yield [6]: 0.40 ± 0.02 g/g
qGlc, specific glucose uptake rate [6]: 0.4 ± 0.0 mmol/g/h
qMA, specific MA production rate [6]: 3.5 ± 0.1 mmol/g/h
Km ([4]; read-out: KM-value for catechol, crude extract of benzoate-grown cells, Michaelis-Menten fit): 2.3 µM
YMA/Aro, MA yield [5, 8]: 0.99 ± 0.02 mol mol^−1
YX/Glc, biomass yield [5, 8]: 0.38 ± 0.01 g/g
qGlc, specific glucose uptake rate [5, 8]: 0.3 ± 0.0 mmol/g/h
qMA, specific MA production rate [5, 8]: 0.2 ± 0.0 mmol/g/h
YMA/Aro, MA yield ([5]; LIMA-1, initial 20 mM benzoate, 10 mM catechol, 5 mM phenol, glucose added, listed as catechol): 1.00±0.01 mol mol^−1
qGlc, specific glucose uptake rate [5, 9]: 0.7 ± 0.0 mmol/g/h
qMA, specific MA production rate [5, 9]: 5.2 ± 0.4 mmol/g/h

O=C(O)/C=C\C=C/C(=O)O [Cis,cis-muconic acid, (2Z,4Z)-2,4-Hexadienedioate]
Growth [3]: +++ (OD > 1)

COc1ccccc1O [Guaiacol]
specific growth rate ([7]; guaiacol as sole carbon source): 0.30 h⁻¹
concentrations utilized (tolerated) up to ([7]; guaiacol as sole source of carbon, 24 hours): ≤ 25 mM
Growth [3]: ++ (1 > OD > 0.5)

Oc1ccccc1 [Phenol]
Growth [3]: ++ (1 > OD > 0.5)
YMA/Aro, MA yield [5]: 0.95 ± 0.09 mol mol^−1
YX/Glc, biomass yield [5]: 0.48 ± 0.01 g/g
qGlc, specific glucose uptake rate [5]: 0.6 ± 0.0 mmol/g/h
qMA, specific MA production rate [5]: 0.1 ± 0.0 mmol/g/h

Cc1ccccc1 [Toluene]
Growth [3]: + (0.5 > OD > 0.25)

O=C(O)/C=C/c1ccc(O)cc1 [p-Coumaric acid]
Growth [3]: +++ (OD > 1)
